The text below walks through data of publication PMC5788574 (The Journal of comparative neurology, 2017).

Each structure is given as a SMILES string. Where two headings read alike, the source gives them in different places.

For data set [1] the following is noted: partial agonist; ref Niaura, Jones, & Kirkpatrick, 2006; cited from earlier work.
The next data set concerns the target hα4β2 nAChR (Homo sapiens, UniProt P17787+P43681). Type of data set: binding. As to conditions: read-out: Ki α4β2; human cloned receptors, 3H-epibatidine.
The next data set deals with hα3β2 nAChR (Homo sapiens, UniProt P17787+P32297). It is filed as binding.
hα3β2 nAChR, sequence (P17787 26-502): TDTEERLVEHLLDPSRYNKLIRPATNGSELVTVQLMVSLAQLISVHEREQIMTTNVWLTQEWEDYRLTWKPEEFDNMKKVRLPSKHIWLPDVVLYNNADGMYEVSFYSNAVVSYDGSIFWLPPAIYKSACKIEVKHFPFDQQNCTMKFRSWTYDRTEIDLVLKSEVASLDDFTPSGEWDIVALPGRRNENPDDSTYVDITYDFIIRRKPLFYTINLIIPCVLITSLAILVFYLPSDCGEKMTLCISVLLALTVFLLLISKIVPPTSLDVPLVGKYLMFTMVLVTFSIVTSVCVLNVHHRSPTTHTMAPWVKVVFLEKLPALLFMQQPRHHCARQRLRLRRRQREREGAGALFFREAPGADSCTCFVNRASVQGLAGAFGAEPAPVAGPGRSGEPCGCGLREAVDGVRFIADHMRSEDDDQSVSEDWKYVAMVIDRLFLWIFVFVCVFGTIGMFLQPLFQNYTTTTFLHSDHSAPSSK
hα3β2 nAChR, sequence (P32297 32-505): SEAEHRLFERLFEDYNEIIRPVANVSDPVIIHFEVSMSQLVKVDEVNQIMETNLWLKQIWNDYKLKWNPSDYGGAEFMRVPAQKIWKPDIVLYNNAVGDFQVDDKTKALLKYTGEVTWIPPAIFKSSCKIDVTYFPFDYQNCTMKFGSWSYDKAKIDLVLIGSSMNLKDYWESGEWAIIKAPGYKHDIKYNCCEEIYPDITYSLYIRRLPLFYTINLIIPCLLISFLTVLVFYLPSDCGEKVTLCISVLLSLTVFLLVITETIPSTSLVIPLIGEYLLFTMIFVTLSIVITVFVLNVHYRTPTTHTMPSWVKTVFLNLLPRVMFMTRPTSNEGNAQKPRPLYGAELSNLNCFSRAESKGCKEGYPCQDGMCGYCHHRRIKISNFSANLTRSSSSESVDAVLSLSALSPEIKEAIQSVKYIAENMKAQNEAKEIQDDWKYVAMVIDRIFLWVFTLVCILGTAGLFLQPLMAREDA
In the next data set the target is hα2β2 nAChR (Homo sapiens, UniProt P17787+Q15822). As to the kind of experiment: biochemical. It is filed as binding.
hα2β2 nAChR, sequence (Q15822 27-529): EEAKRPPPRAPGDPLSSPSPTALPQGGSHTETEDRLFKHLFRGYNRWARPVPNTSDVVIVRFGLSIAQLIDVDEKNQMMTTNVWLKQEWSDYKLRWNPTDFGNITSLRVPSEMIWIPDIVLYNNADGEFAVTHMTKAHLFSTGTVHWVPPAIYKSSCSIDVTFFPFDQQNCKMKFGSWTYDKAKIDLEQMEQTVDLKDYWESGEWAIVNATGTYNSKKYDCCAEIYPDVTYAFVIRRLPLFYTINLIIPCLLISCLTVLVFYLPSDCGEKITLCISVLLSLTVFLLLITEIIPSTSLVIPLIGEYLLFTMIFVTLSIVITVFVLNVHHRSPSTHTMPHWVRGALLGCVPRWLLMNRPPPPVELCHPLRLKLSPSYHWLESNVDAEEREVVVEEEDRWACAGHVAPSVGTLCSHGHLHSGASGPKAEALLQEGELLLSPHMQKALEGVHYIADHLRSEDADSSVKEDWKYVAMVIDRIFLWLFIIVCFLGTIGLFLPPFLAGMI
hα2β2 nAChR, sequence (P17787 26-502): as the sequence (P17787 26-502) above
For a further data set, the target named is nAChR α4β4 (Homo sapiens, UniProt P30926+P43681). It is filed as binding.
nAChR α4β4, sequence (P43681 29-627): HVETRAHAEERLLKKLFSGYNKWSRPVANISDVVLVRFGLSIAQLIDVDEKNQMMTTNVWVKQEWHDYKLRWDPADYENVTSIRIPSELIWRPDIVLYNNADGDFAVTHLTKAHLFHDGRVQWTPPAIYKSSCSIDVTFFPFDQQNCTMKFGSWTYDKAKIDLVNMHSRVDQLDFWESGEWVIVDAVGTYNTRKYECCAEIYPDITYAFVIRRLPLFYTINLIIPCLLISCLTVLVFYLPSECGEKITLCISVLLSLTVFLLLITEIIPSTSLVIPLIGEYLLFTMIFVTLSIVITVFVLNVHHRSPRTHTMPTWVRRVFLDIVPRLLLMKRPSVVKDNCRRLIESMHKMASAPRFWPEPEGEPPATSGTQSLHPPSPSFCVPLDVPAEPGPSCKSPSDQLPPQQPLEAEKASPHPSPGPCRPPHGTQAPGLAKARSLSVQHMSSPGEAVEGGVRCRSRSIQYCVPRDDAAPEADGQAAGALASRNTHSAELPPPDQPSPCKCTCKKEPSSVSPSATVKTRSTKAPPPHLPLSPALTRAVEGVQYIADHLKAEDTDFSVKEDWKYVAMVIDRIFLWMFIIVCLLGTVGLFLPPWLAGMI
nAChR α4β4, sequence (P30926 22-498): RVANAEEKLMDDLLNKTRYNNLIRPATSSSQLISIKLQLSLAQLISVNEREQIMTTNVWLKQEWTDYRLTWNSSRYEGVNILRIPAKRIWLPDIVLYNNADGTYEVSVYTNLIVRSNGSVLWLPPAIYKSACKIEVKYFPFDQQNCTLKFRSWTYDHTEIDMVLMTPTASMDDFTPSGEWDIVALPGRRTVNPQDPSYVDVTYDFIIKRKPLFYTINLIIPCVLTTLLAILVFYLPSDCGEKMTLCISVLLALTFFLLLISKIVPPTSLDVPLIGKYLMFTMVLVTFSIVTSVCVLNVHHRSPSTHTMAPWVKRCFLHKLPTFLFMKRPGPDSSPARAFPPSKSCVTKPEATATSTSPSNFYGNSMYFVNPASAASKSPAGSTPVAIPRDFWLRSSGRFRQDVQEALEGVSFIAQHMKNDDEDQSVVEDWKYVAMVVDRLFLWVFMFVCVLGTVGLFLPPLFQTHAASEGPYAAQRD
The next data set concerns the target nAChR α3β4 (Homo sapiens, UniProt P30926+P32297). Type of data set: binding.
A further data set deals with nAChR α2β4 (Homo sapiens, UniProt P30926+Q15822). Nature of the data set: biochemical. Type of data set: binding.
nAChR α2β4, sequence (Q15822 27-529): as the sequence (Q15822 27-529) above
nAChR α2β4, sequence (P30926 22-498): as the sequence (P30926 22-498) above
The target of another data set is α7 nAChR (Rattus norvegicus, UniProt Q05941). Type of data set: binding. As to conditions: read-out: Ki α7; rat cloned receptors labeled with 125I-α-bungarotoxin.
α7 nAChR, sequence (Q05941 23-502): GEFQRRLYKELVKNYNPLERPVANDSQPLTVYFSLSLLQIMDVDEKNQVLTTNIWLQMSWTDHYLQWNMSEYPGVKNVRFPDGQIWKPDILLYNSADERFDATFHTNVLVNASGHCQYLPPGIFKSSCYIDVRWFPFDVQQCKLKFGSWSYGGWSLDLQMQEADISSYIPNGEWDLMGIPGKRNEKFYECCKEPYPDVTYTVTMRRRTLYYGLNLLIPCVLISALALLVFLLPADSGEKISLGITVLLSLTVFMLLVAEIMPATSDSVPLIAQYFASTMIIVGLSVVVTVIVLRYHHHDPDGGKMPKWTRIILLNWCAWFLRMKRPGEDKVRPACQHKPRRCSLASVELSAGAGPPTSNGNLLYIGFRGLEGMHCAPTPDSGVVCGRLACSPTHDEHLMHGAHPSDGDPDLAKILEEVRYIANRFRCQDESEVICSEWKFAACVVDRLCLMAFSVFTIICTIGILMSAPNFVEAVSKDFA
Data set [2] has as its system all other receptor subtypes tested. As to the kind of experiment: PDSP screen of other receptor subtypes at 10 μM. As to conditions: significant inhibition >50%. Type of data set: binding, human.
Another data set deals with human α4β2 nAChR. Nature of the data set: [86Rb+]rubidium efflux functional assay, YXα4β2H1 cells. Type of data set: cell-based. The settings on record: for As Antagonist, α4β2 nAChR, inhibition of nicotine-stimulated 86Rb+ efflux: vs 100 μM nicotine.
The subject of the next data set is human α3β4 nAChR. As to the kind of experiment: [86Rb+]rubidium efflux functional assay, YXα3β4H1 cells. As to conditions: for As Antagonist, α3β4 nAChR, inhibition of nicotine-stimulated 86Rb+ efflux: vs 100 μM nicotine. It is filed as cell-based.
The nature of data set [3]: Expanded acute toxicity study, intravenous, rats. Type of data set: in vivo, Sprague-Dawley rats.
The next data set deals with hβ4 nAChR subtypes. It is filed as binding, human. As to conditions: read-out: Affinity for hβ4 nAChR subtypes; range over α4β4, α3β4, α2β4.
[4] abbreviates: [α4β2 affinity/other receptor affinity]×100, human α4β2 affinities.
The mark [5] stands for this setting: 100 μM, 100 μM nicotine as 100%.

nAChR α3β4, sequence (P32297 32-505): as the sequence (P32297 32-505) above
nAChR α3β4, sequence (P30926 22-498): as the sequence (P30926 22-498) above
hα4β2 nAChR, sequence (P17787 26-502): as the sequence (P17787 26-502) above
hα4β2 nAChR, sequence (P43681 27-627): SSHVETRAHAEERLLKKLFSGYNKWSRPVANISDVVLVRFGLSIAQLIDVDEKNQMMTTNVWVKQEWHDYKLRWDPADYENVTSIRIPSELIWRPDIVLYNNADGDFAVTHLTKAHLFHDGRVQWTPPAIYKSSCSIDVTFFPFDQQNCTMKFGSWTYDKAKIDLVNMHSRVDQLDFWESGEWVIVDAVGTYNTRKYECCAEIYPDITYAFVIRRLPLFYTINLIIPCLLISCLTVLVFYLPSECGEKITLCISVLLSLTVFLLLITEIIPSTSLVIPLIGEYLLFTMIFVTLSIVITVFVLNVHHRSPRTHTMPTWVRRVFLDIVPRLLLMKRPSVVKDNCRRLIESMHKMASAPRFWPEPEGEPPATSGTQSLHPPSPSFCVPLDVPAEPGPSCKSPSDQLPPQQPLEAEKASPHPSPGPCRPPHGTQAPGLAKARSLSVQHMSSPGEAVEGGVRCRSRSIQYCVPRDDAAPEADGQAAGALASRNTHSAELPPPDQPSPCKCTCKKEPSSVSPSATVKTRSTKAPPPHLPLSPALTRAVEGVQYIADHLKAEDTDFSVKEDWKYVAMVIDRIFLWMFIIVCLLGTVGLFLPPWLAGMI

Regarding `c1cnc2cc3c(cc2n1)[C@@H]1CNC[C@H]3C1` [varen-cline], the “in vivo efficacy compared to nicotine” value in data set [1] is 30–60%.
`Fc1ncccc1OC[C@@H]1C=CCN1` [Nifene]: the Ki at hα4β2 nAChR was 0.83 nM; on hα3β2 nAChR (read-out: Ki α3β2, human cloned receptors, 3H-epibatidine) it was 0.8 nM; on hα2β2 nAChR (read-out: Ki α2β2, human cloned receptors, 3H-epibatidine), 0.34 nM; at nAChR α4β4 (read-out: Ki α4β4, human cloned receptors, 3H-epibatidine) it was 27.2 nM; at nAChR α3β4 (read-out: Ki α3β4, human cloned receptors, 3H-epibatidine), 190 nM; on nAChR α2β4 (read-out: Ki α2β4, human cloned receptors, 3H-epibatidine), 52.4 nM. For the same molecule, the Ki is 169 nM on α7 nAChR and 27 to 219 nM on hβ4 nAChR subtypes. Besides, at hα3β2 nAChR (setting [4]), the “% human α4β2 Selectivity, α3β2” value came to 104%. The “Fold higher affinity for α2β2 compared to α3β2 and α4β2 subtypes” value on hα2β2 nAChR is recorded as “approximately 5 fold”. The “% human α4β2 Selectivity, α2β2” value at hα2β2 nAChR (setting [4]) is 244%. The “% human α4β2 Selectivity, α4β4” value on nAChR α4β4 (setting [4]) worked out at 3.05%. Also, the “% human α4β2 Selectivity, α3β4” value at nAChR α3β4 (setting [4]) stood at 0.44%. Also, the “% human α4β2 Selectivity, α2β4” value at nAChR α2β4 (setting [4]) is 1.58%. For the same molecule, the “Affinity at all other receptor subtypes tested” value in data set [2] is reported as “did not exhibit significant affinity”. The entries for the “As Antagonist, α4β2 nAChR, inhibition of nicotine-stimulated 86Rb+ efflux” value in the data set with human α4β2 nAChR (1 μM), in the data set with human α4β2 nAChR (10 μM) and in the data set with human α4β2 nAChR (100 μM) were 18%, 21% and 56%, respectively. For the same molecule, the “As Agonist, α4β2 nAChR, stimulated 86Rb+ efflux” value in the data set with human α4β2 nAChR (setting [5]) is given as 14%. Moreover, the figures for the “As Antagonist, α3β4 nAChR, inhibition of nicotine-stimulated 86Rb+ efflux” value with human α3β4 nAChR (1 μM), in the data set on human α3β4 nAChR (10 μM) and in the data set on human α3β4 nAChR (100 μM) were 9%, 16% and 59%, respectively. For the same molecule, the “As Agonist, α3β4 nAChR, stimulated 86Rb+ efflux” value in the data set on human α3β4 nAChR (setting [5]) is reported as 35%. The “Tolerability of intravenous injections” value in data set [3] (Sprague-Dawley male and female rats, 1.6, 20 and 40 μg/kg/day) is reported as “well tolerated”. For the same molecule, in data set [3] (rats, up to 40 μg/kg/day i.v.), the Morbidity or mortality result is “no morbidity or mortality”.
Consider `CN1CCC[C@H]1c1cccnc1` [Nicotine, reference compound], for which the Ki was 3.64 nM at hα2β2 nAChR, 82.7 nM on nAChR α2β4 and 27 to 219 nM on hβ4 nAChR subtypes.
